Test results as given in article PMC3266934, “The Murine Coronavirus Hemagglutinin-esterase Receptor-binding Site: A Major Shift in Ligand Specificity through Modest Changes in Architecture” (PLoS Pathogens, 2012).

Molecular target: T1, MHV-S HE ectodomain (HE / HE^0) (Murine hepatitis virus strain S, UniProt P31614)
T1 construct: HEK293T or HEK293 GnTI(-); codon-optimized synthetic gene; homodimer
Test: GC-MS of enzymatic de-O-acetylation
Type: biochemical
Settings: sialate-4-O-acetylesterase site; thrombin-released ectodomain

T1 sequence (P31614 25-403): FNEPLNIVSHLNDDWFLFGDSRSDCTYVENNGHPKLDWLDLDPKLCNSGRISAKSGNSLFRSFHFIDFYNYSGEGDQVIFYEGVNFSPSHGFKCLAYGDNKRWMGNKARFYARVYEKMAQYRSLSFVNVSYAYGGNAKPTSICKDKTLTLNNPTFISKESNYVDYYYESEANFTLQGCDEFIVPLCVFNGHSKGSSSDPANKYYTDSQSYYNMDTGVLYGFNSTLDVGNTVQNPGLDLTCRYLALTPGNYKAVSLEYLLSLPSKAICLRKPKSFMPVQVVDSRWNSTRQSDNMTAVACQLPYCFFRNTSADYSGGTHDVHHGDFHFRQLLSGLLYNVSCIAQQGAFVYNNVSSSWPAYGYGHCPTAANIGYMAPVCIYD

SMILES: CO[C@]1(C(=O)O)C[C@H](OC(C)=O)[C@@H](NC(C)=O)[C@H]([C@H](O)[C@H](O)COC(C)=O)O1 [αNeu4,5,9Ac32Me, 5-N-acetyl-4,9-di-O-acetylneuraminic acid α-methylglycoside]
- GC-MS of enzymatic de-O-acetylation: retained proper sialate-4-O-acetylesterase activity when assayed for substrate specificity with a synthetic di-O-acetylated Sia
